What was measured:
[1] = Tmax in CD-1 mouse at 10 mg/kg, po measured for 24 hrs by UPLC-MS/MS analysis; format: ADME, organism-based; details: in vivo
Transthyretin [2] = molecular target: T1, Transthyretin (Homo sapiens, UniProt P02766); experiment: Potency index, ratio of Kd for Tolcapone to test compound for wild-type TTR (unknown origin) expressed in Escherichia coli BL21(DE3) assessed as dissociation constant by ITC analysis
[3] = test system: Transthyretin (Homo sapiens), P02766 [V50M]; experiment: Binding affinity to TTR V30M mutant (unknown origin) expressed in Escherichia coli BL21(DE3) assessed as change in entropy at 100 uM by ITC analysis
Transthyretin [4] = molecular target: T1, Transthyretin; experiment: Binding affinity to wild-type TTR (unknown origin) expressed in Escherichia coli BL21(DE3) assessed as change in enthalpy at 100 uM by ITC analysis
[5] = Cmax in CD-1 mouse at 1 mg/kg, iv measured for 24 hrs by UPLC-MS/MS analysis; format: ADME, organism-based; parameters: dose 1 mg/kg, time 24 hrs, route iv; details: in vivo
Transthyretin [6] = molecular target: T1, Transthyretin; experiment: Binding affinity to wild-type TTR (unknown origin) expressed in Escherichia coli BL21(DE3) assessed as dissociation constant by ITC analysis
Transthyretin [7] = molecular target: T1, Transthyretin; experiment: Displacement of [125I]-T4 from TTR in human plasma incubated for 1 hr by densitometry relative to control; format: cell-free
[8] = test system: Transthyretin (Homo sapiens), P02766 [V50M]; experiment: Stabilization of TTR V30M mutant (unknown origin) expressed in Escherichia coli BL21(DE3) assessed as inhibition of TTR aggregation at 20 uM incubated for 30 mins followed by acidification measured for 72 hrs by turbidimetry relative to control; details: time 72.5 hrs
[9] = test system: Transthyretin (Homo sapiens), P02766 [V142I]; experiment: Stabilization of TTR V122I mutant (unknown origin) expressed in Escherichia coli BL21(DE3) assessed as inhibition of TTR aggregation at 20 uM incubated for 30 mins followed by acidification measured for 72 hrs by turbidimetry relative to control; details: time 72.5 hrs
[10] = Half life in CD-1 mouse at 10 mg/kg, po measured for 24 hrs by UPLC-MS/MS analysis; format: ADME, organism-based; details: in vivo
Transthyretin [11] = molecular target: T1, Transthyretin; experiment: Stabilization of wild-type TTR (unknown origin) expressed in Escherichia coli BL21(DE3) assessed as inhibition of TTR aggregation incubated for 30 mins followed by acidification measured for 72 hrs by turbidimetry relative to control; details: time 72.5 hrs
[12] = Elimination rate constant in CD-1 mouse at 10 mg/kg, po measured for 24 hrs by UPLC-MS/MS analysis; format: ADME, organism-based; details: in vivo
[13] = test system: Transthyretin (Homo sapiens), P02766 [V50M]; experiment: Binding affinity to TTR V30M mutant (unknown origin) expressed in Escherichia coli BL21(DE3) assessed as change in gibbs free energy at 100 uM by ITC analysis
[14] = test system: Transthyretin (Homo sapiens), P02766 [V142I]; experiment: Binding affinity to TTR V122I mutant (unknown origin) expressed in Escherichia coli BL21(DE3) assessed as change in entropy at 100 uM by ITC analysis
[15] = test system: Transthyretin (Homo sapiens), P02766 [V50M]; experiment: Displacement of [125I]-T4 from TTR V30M mutant in human plasma incubated for 1 hr by densitometry relative to control; format: cell-free
[16] = test system: Transthyretin (Homo sapiens), P02766 [V142I]; experiment: Potency index, ratio of Kd for Tolcapone to test compound for TTR V122I mutant (unknown origin) expressed in Escherichia coli BL21(DE3) assessed as dissociation constant by ITC analysis
Transthyretin [17] = molecular target: Transthyretin (Homo sapiens, UniProt P02766, V50M); experiment: Binding affinity to TTR V30M mutant (unknown origin) expressed in Escherichia coli BL21(DE3) assessed as dissociation constant by ITC analysis
[18] = Elimination rate constant in CD-1 mouse at 1 mg/kg, iv measured for 24 hrs by UPLC-MS/MS analysis; format: ADME, organism-based; details: in vivo
[19] = Oral bioavailability in CD-1 mouse at 10 mg/kg measured for 24 hrs by UPLC-MS/MS analysis; format: ADME, organism-based; details: in vivo
MRC5 = experiment: Cytotoxicity against human MRC5 cells assessed as cell viability upto 100 uM incubated for 72 hrs by PrestoBlue assay; format: toxicity, cell-based; details: mrc5, 72 h
Transthyretin [20] = molecular target: T1, Transthyretin; experiment: Stabilization of wild-type TTR (unknown origin) expressed in Escherichia coli BL21(DE3) assessed as inhibition of TTR aggregation at 20 uM incubated for 30 mins followed by acidification measured for 72 hrs by turbidimetry relative to control; details: time 72.5 hrs
Transthyretin [21] = molecular target: T1, Transthyretin; experiment: Stabilization of wild-type TTR (unknown origin) expressed in Escherichia coli BL21(DE3) assessed as reduction in urea-induced tetramer dissociation at 3.6 uM preincubated for 30 mins followed by urea addition measured for 100 hrs by fluorescence based assay relative to control; parameters: scale not given: the % may be the effect or the level left; details: time 100.5 hrs
[22] = test system: Transthyretin (Homo sapiens), P02766 [V50M]; experiment: Binding affinity to TTR V30M mutant (unknown origin) expressed in Escherichia coli BL21(DE3) assessed as change in enthalpy at 100 uM by ITC analysis
[23] = Volume of distribution in CD-1 mouse at 10 mg/kg, po measured for 24 hrs by UPLC-MS/MS analysis; format: ADME, organism-based; details: in vivo
HepG2 = experiment: Cytotoxicity against human HepG2 cells assessed as cell viability upto 100 uM incubated for 72 hrs by PrestoBlue assay; format: toxicity, cell-based; details: hepg2, 72 h
[24] = Cmax in CD-1 mouse at 10 mg/kg, po measured for 24 hrs by UPLC-MS/MS analysis; format: ADME, organism-based; parameters: dose 10 mg/kg, time 24 hrs, route po; details: in vivo
Transthyretin [25] = molecular target: T1, Transthyretin; experiment: Stabilization of wild-type TTR (unknown origin) expressed in Escherichia coli BL21(DE3) assessed as inhibition of TTR aggregation at 1:1 ratio of TTR:compound incubated for 30 mins followed by acidification measured for 72 hrs by turbidimetry relative to control; details: time 72.5 hrs
[26] = Clearance in CD-1 mouse at 1 mg/kg, iv measured for 24 hrs by UPLC-MS/MS analysis; format: ADME, organism-based; details: in vivo
[27] = test system: Transthyretin (Homo sapiens), P02766 [V142I]; experiment: Binding affinity to TTR V122I mutant (unknown origin) expressed in Escherichia coli BL21(DE3) assessed as change in gibbs free energy at 100 uM by ITC analysis
[28] = test system: Transthyretin (Homo sapiens), P02766 [V142I]; experiment: Binding affinity to TTR V122I mutant (unknown origin) expressed in Escherichia coli BL21(DE3) assessed as change in enthalpy at 100 uM by ITC analysis
[29] = test system: Transthyretin (Homo sapiens), P02766 [V50M]; experiment: Stabilization of TTR V30M mutant (unknown origin) expressed in Escherichia coli BL21(DE3) assessed as reduction in urea-induced tetramer dissociation at 3.6 uM preincubated for 30 mins followed by urea addition measured for 100 hrs by fluorescence based assay relative to control; parameters: scale not given: the % may be the effect or the level left; details: time 100.5 hrs
[30] = AUC (0 to 24 hrs) in CD-1 mouse at 10 mg/kg, po measured for 24 hrs by UPLC-MS/MS analysis; format: ADME, organism-based; parameters: time 24 hrs, dose 10 mg/kg, route po; details: in vivo
HeLa = experiment: Cytotoxicity against human HeLa cells assessed as cell viability upto 100 uM incubated for 72 hrs by PrestoBlue assay; format: toxicity, cell-based
[31] = Half life in CD-1 mouse at 1 mg/kg, iv measured for 24 hrs by UPLC-MS/MS analysis; format: ADME, organism-based; details: in vivo
Transthyretin [32] = molecular target: T1, Transthyretin; experiment: Binding affinity to wild-type TTR (unknown origin) expressed in Escherichia coli BL21(DE3) assessed as change in gibbs free energy at 100 uM by ITC analysis
[33] = test system: Transthyretin (Homo sapiens), P02766 [V142I]; experiment: Stabilization of TTR V122I mutant (unknown origin) expressed in Escherichia coli BL21(DE3) assessed as reduction in urea-induced tetramer dissociation at 3.6 uM preincubated for 30 mins followed by urea addition measured for 100 hrs by fluorescence based assay relative to control; parameters: scale not given: the % may be the effect or the level left; details: time 100.5 hrs
Transthyretin [34] = molecular target: Transthyretin (Homo sapiens, UniProt P02766, V142I); experiment: Binding affinity to TTR V122I mutant (unknown origin) expressed in Escherichia coli BL21(DE3) assessed as dissociation constant by ITC analysis
[35] = Volume of distribution in CD-1 mouse at 1 mg/kg, iv measured for 24 hrs by UPLC-MS/MS analysis; format: ADME, organism-based; details: in vivo
[36] = AUC (0 to 24 hrs) in CD-1 mouse at 1 mg/kg, iv by UPLC-MS/MS analysis; format: ADME, organism-based; parameters: time 24 hrs, dose 1 mg/kg, route iv; details: in vivo
[37] = test system: Transthyretin (Homo sapiens), P02766 [V50M]; experiment: Potency index, ratio of Kd for Tolcapone to test compound for TTR V30M mutant (unknown origin) expressed in Escherichia coli BL21(DE3) assessed as dissociation constant by ITC analysis
[38] = test system: Transthyretin (Homo sapiens), P02766 [V50M]; experiment: Stabilization of TTR V30M mutant in human plasma assessed as degree of tetramer stability at 19.1 uM incubated overnight followed by urea addition measured after 5 hrs by isoelectric focusing based densitometry relative to control; format: cell-free
Transthyretin [39] = molecular target: T1, Transthyretin; experiment: Binding affinity to wild-type TTR (unknown origin) expressed in Escherichia coli BL21(DE3) assessed as change in entropy at 100 uM by ITC analysis
[40] = Clearance in CD-1 mouse at 10 mg/kg, po measured for 24 hrs by UPLC-MS/MS analysis; format: ADME, organism-based; details: in vivo
[41] = Drug metabolism in CD-1 mouse assessed as 3-O-methylM23 formation by measuring AUC (0 to 24 hrs) at 10 mg/kg, po by UPLC-MS/MS analysis; format: ADME, organism-based; parameters: time 24 hrs, dose 10 mg/kg, route po; details: in vivo
[42] = Drug metabolism in CD-1 mouse assessed as 3-O-methylM23 formation by measuring Cmax at 10 mg/kg, po measured for 24 hrs by UPLC-MS/MS analysis; format: ADME, organism-based; parameters: time 24 hrs, dose 10 mg/kg, route po; details: in vivo
[43] = Drug metabolism in CD-1 mouse assessed as 3-O-methylM23 formation by measuring half life at 1 mg/kg, iv measured for 24 hrs by UPLC-MS/MS analysis; format: ADME, organism-based; details: in vivo
[44] = Drug metabolism in CD-1 mouse assessed as 3-O-methylM23 formation by measuring Tmax at 10 mg/kg, po measured for 24 hrs by UPLC-MS/MS analysis; format: ADME, organism-based; details: in vivo
[45] = Drug metabolism in CD-1 mouse assessed as 3-O-methylM23 formation by measuring half life at 10 mg/kg, po measured for 24 hrs by UPLC-MS/MS analysis; format: ADME, organism-based; details: in vivo
[46] = Drug metabolism in CD-1 mouse assessed as 3-O-methylM23 formation by measuring AUC (0 to 24 hrs) at 1 mg/kg, iv by UPLC-MS/MS analysis; format: ADME, organism-based; parameters: time 24 hrs, dose 1 mg/kg, route iv; details: in vivo
[47] = Drug metabolism in CD-1 mouse assessed as 3-O-methylM23 formation by measuring Cmax at 1 mg/kg, iv measured for 24 hrs by UPLC-MS/MS analysis; format: ADME, organism-based; parameters: dose 1 mg/kg, time 24 hrs, route iv; details: in vivo

Compound: COc1cc(C(=O)c2cc(O)cc(F)c2)cc([N+](=O)[O-])c1O
- Tmax [1]: 30 min
- Ratio (Transthyretin [2]): > 3
- -TdeltaS [3]: 0.8 kcal/mol
- deltaH (Transthyretin [4]): -13.4 kcal/mol
- Cmax [5]: 4040 ng/mL
- Kd (Transthyretin [6]): 16 nM
- Activity (Transthyretin [7]): 97.3%
- inhibition [8]: 92%
- inhibition [9]: < 90%
- half-life [10]: 606 min
- inhibition (Transthyretin [11]): > 87.5%
- k el at 24 h [12]: 1.92e-05 s⁻¹
- deltaG [13]: -10.2 kcal/mol
- -TdeltaS [14]: 5.4 kcal/mol
- Activity [15]: 94.5%
- Ratio [16]: > 3
- Kd (Transthyretin [17]): 36 nM
- k el at 24 h [18]: 5.58e-05 s⁻¹
- bioavailability [19]: 85.1%
- Activity (MRC5): Non-Toxic
- inhibition (Transthyretin [20]): 89.2%
- Activity (Transthyretin [21]): 94.1%
- deltaH [22]: -11 kcal/mol
- Vd [23]: 4.482 L/kg
- Activity (HepG2): Non-Toxic
- Cmax [24]: 4180 ng/mL
- inhibition (Transthyretin [25]): > 60%
- clearance [26]: 5.25 mL/min/kg
- deltaG [27]: -10.7 kcal/mol
- deltaH [28]: -16.1 kcal/mol
- Activity [29]: 79.2%
- AUC(0-t) at 24 h [30]: 26900 ng·h/mL
- Activity (HeLa): Non-Toxic
- half-life [31]: 210 min
- deltaG (Transthyretin [32]): -10.6 kcal/mol
- Activity [33]: 92.5%
- Kd (Transthyretin [34]): 14 nM
- Vd [35]: 1.57 L/kg
- AUC(0-t) at 24 h [36]: 3160 ng·h/mL
- Ratio [37]: > 12
- Activity [38]: 17.4%
- -TdeltaS (Transthyretin [39]): 2.8 kcal/mol
- CL/F [40]: 5.13 mL/min/kg

Compound: O=C(c1cc(O)cc(F)c1)c1cc(O)c(O)c([N+](=O)[O-])c1
- Tmax [1]: < 15 min
- AUC [41]: 209.1 ng·h/mL
- Cmax [5]: 1360 ng/mL
- half-life [10]: 54 min
- Cmax [42]: 96.7 ng/mL
- t1/2 [43]: 2.7 h
- Cmax [24]: 744 ng/mL
- AUC(0-t) at 24 h [30]: 866 ng·h/mL
- Tmax [44]: < 15 min
- half-life [31]: 90 min
- t1/2 [45]: 2.8 h
- AUC [46]: 462.1 ng·h/mL
- Cmax [47]: 555.3 ng/mL
- AUC(0-t) at 24 h [36]: 761 ng·h/mL

Source: ChEMBL document CHEMBL5335793, “PITB: A high affinity transthyretin aggregation inhibitor with optimal pharmacokinetic properties” (Eur J Med Chem, 2023)
